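Five compound concentrations were applied to cells in 96-well plates for 48 hours; endpoints were derived by simple linear interpolation of the resulting dose-response curve. TGI: total growth inhibition.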
Legend:
Assay in all cases: inhibition of tumour cell growth, NCI panel, 48 h
KM12 colon = tested on: KM12 colon
SN12C renal = tested on: SN12C renal
EKVX NSCLC = tested on: EKVX NSCLC
SW-620 colon = tested on: SW-620 colon
K-562 leukemia = tested on: K-562 leukemia
HOP-62 NSCLC = tested on: HOP-62 NSCLC
SK-MEL-5 melanoma = tested on: SK-MEL-5 melanoma
HCT-116 colon = tested on: HCT-116 colon
MCF7 breast = tested on: MCF7 breast
NCI-H460 lung = tested on: NCI-H460 lung
ACHN renal = tested on: ACHN renal
HS 578T breast = tested on: HS 578T breast
LOX IMVI melanoma = tested on: LOX IMVI melanoma
IGROV1 ovarian = tested on: IGROV1 ovarian
SK-OV-3 ovarian = tested on: SK-OV-3 ovarian
MDA-MB-435 = tested on: MDA-MB-435
HCT-15 colon = tested on: HCT-15 colon
T-47D breast = tested on: T-47D breast
TK-10 renal = tested on: TK-10 renal
MDA-N = tested on: MDA-N
786-0 renal = tested on: 786-0 renal
A498 renal = tested on: A498 renal
HOP-92 NSCLC = tested on: HOP-92 NSCLC
UACC-257 melanoma = tested on: UACC-257 melanoma
CAKI-1 renal = tested on: CAKI-1 renal
SNB-19 CNS = tested on: SNB-19 CNS
SF-295 CNS = tested on: SF-295 CNS
RXF 393 renal = tested on: RXF 393 renal
MDA-MB-231 breast = tested on: MDA-MB-231 breast
NCI/ADR-RES ovarian = tested on: NCI/ADR-RES ovarian
MALME-3M melanoma = tested on: MALME-3M melanoma
SK-MEL-28 melanoma = tested on: SK-MEL-28 melanoma
HT29 colon = tested on: HT29 colon
OVCAR-3 ovarian = tested on: OVCAR-3 ovarian
OVCAR-4 ovarian = tested on: OVCAR-4 ovarian
MOLT-4 leukemia = tested on: MOLT-4 leukemia
BT-549 breast = tested on: BT-549 breast
NCI-H23 lung = tested on: NCI-H23 lung
M14 melanoma = tested on: M14 melanoma
OVCAR-8 ovarian = tested on: OVCAR-8 ovarian
SF-268 CNS = tested on: SF-268 CNS
UACC-62 melanoma = tested on: UACC-62 melanoma
SF-539 CNS = tested on: SF-539 CNS
HCC-2998 colon = tested on: HCC-2998 colon
A549 NSCLC = tested on: A549 NSCLC
U251 CNS = tested on: U251 CNS
NCI-H522 lung = tested on: NCI-H522 lung
DU-145 prostate = tested on: DU-145 prostate
HL-60(TB) leukemia = tested on: HL-60(TB) leukemia
PC-3 prostate = tested on: PC-3 prostate
UO-31 renal = tested on: UO-31 renal
NCI-H226 lung = tested on: NCI-H226 lung
SNB-75 CNS = tested on: SNB-75 CNS
SK-MEL-2 melanoma = tested on: SK-MEL-2 melanoma
RPMI-8226 leukemia = tested on: RPMI-8226 leukemia
OVCAR-5 ovarian = tested on: OVCAR-5 ovarian
CCRF-CEM leukemia = tested on: CCRF-CEM leukemia
COLO 205 colon = tested on: COLO 205 colon
SR leukemia = tested on: SR leukemia

Measured: TGI

COc1cc([C@@H]2c3cc4c(cc3[C@@H](N=Cc3ccc(C(=O)O[C@@H](C(=O)O[C@H]5C[C@@]6(O)[C@@H](OC(=O)c7ccccc7)[C@@H]7[C@]8(OC(C)=O)CO[C@@H]8C[C@H](O)[C@@]7(C)C(=O)[C@H](OC(C)=O)C(=C5C)C6(C)C)[C@@H](NC(=O)c5ccccc5)c5ccccc5)cc3)[C@H]3COC(=O)[C@H]23)OCO4)cc(OC)c1O
> 18.5 µM: NCI-H23 lung
> 11.7 µM: BT-549 breast
24.8 µM: SF-295 CNS
26.2 µM: A498 renal
> 31.1 µM: RXF 393 renal
7.38 µM: MCF7 breast
> 42.5 µM: DU-145 prostate
0.182 µM: HL-60(TB) leukemia
0.0663 µM: MDA-N
> 47 µM: EKVX NSCLC
> 22.7 µM: SK-OV-3 ovarian
2.92 µM: HCC-2998 colon
1.92 µM: HT29 colon
> 13.9 µM: MDA-MB-231 breast
> 16.9 µM: U251 CNS
1.47 µM: SF-539 CNS
0.164 µM: OVCAR-3 ovarian
0.00867 µM: MDA-MB-435
not listed: PC-3 prostate | UO-31 renal | NCI-H226 lung | SNB-75 CNS | SK-MEL-2 melanoma | RPMI-8226 leukemia | OVCAR-5 ovarian | CCRF-CEM leukemia | COLO 205 colon | SR leukemia
> 50 µM: all other assays above

CC(C)=CCCC1(Sc2ccccc2)C(=O)OCC1C=C(C)C (stereo not given)
50 µM: COLO 205 colon
55.8 µM: SK-MEL-2 melanoma
45.8 µM: HCT-116 colon
20.4 µM: MOLT-4 leukemia
73.7 µM: 786-0 renal | NCI-H226 lung
46.1 µM: SN12C renal
59 µM: OVCAR-5 ovarian
83 µM: UACC-257 melanoma
48.1 µM: RPMI-8226 leukemia
36.7 µM: SK-MEL-5 melanoma
47.9 µM: SF-539 CNS
42.8 µM: OVCAR-3 ovarian
47.4 µM: NCI-H522 lung
52.1 µM: M14 melanoma
78.1 µM: A549 NSCLC
45.1 µM: RXF 393 renal
60.4 µM: IGROV1 ovarian
30.1 µM: LOX IMVI melanoma
40.7 µM: MALME-3M melanoma
79.7 µM: EKVX NSCLC
66.1 µM: MDA-N
not listed: K-562 leukemia | HS 578T breast | HOP-92 NSCLC | HT29 colon | UACC-62 melanoma | DU-145 prostate | HL-60(TB) leukemia | SR leukemia
> 100 µM: all other assays above

c1ccc(CCN2CCN=C2Cc2ccccc2)cc1
93.8 µM: HOP-92 NSCLC
38.2 µM: HCC-2998 colon
not listed: MDA-MB-435 | CAKI-1 renal | MOLT-4 leukemia | SF-539 CNS | PC-3 prostate
> 100 µM: all other assays above

CC1=Nc2c(C#N)ncn2N=C(C)C1
not listed: EKVX NSCLC | HCT-15 colon | T-47D breast | SNB-19 CNS | MALME-3M melanoma | OVCAR-8 ovarian | HCC-2998 colon | NCI-H522 lung
> 100 µM: all other assays above
